Measured values published in patent US20250059198A1, “BRM DEGRADING COMPOUNDS AND ASSOCIATED METHODS OF USE” (Arvinas Operations, Inc., priority 2021, published 2025).

Molecular target: T1, BRM (Homo sapiens, UniProt P51531)
T1 construct: Western Blot Screen of BRM Degradation in SW1573 Cells; endogenous in cells; host or cells: SW1573 cells
Assay: BRM degradation (Dmax and DC50) in SW1573 cells, Western blot screen / In-Cell Western screen
Format: cell-based
Conditions: overnight (18-20 hours) treatment; for Dmax: read-out: Dmax (%)** (% degraded)
How it was run: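 SW1573 cells were treated with compound for 18–20 h (final 0.1% DMSO). BRM was quantified either by Western blot of RIPA lysates or by fixed-cell In-Cell Western (LI-COR, 800/680 nm), each normalised to alpha-tubulin, giving Dmax and DC50.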

T1 sequence (P51531 whole entry): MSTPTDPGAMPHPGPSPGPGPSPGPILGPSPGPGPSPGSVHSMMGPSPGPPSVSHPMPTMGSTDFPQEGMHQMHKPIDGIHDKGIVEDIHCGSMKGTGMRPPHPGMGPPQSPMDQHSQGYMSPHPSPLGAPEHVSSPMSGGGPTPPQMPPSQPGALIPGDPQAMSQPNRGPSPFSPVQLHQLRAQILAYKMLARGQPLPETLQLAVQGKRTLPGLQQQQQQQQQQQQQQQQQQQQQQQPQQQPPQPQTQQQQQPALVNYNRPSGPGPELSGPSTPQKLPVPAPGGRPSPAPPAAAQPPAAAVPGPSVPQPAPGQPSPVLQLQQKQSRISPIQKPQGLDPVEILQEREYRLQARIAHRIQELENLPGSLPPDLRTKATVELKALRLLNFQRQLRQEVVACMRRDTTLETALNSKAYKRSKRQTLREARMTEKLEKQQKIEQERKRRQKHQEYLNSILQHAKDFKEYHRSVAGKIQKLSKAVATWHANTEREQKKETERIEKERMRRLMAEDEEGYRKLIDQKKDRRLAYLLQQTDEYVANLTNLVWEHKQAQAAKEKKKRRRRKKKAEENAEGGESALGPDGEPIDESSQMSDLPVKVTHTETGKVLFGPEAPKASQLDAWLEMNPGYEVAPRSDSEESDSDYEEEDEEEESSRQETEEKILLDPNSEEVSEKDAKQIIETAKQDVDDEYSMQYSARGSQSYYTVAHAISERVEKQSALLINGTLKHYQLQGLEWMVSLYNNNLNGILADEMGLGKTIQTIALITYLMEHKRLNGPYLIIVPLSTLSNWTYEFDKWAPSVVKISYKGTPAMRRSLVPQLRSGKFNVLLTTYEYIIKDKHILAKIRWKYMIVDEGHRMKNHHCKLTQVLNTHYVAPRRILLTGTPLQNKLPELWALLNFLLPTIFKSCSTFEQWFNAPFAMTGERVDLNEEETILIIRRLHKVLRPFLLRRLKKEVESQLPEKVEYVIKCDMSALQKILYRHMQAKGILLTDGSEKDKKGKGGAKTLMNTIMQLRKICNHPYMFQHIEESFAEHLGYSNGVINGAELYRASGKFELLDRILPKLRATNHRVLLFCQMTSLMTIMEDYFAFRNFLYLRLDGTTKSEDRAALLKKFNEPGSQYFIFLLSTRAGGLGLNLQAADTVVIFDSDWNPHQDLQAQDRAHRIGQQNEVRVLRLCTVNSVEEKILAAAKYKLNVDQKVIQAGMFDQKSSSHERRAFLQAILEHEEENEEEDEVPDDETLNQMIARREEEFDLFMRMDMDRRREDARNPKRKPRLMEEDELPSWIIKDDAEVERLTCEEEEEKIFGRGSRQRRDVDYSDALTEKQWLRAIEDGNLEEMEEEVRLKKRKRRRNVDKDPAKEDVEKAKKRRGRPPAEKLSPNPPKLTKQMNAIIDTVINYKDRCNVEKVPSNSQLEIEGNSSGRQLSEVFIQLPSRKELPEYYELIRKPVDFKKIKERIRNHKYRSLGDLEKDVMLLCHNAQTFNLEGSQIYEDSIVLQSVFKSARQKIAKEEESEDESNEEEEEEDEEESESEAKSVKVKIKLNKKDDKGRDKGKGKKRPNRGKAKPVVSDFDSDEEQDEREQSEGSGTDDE

Compound	DC50 [nM]	Dmax [%]
Cc1ncsc1-c1ccc([C@H](C)NC(=O)[C@@H]2C[C@@H](O)CN2C(=O)C(c2cc(N3CCC(OC(=O)N4CCC(O[C@H]5C[C@H](Oc6cc(N7CCN(c8cc(-c9ccccc9O)nnc8N)CC7)ccn6)C5)CC4)CC3)no2)C(C)C)cc1 (stereo partly drawn) [Compound 145, 1-(5-{1-[(2S,4R)-4-hydroxy-2-{[(1S)-1-[4-(4-methyl-1,3-thiazol-5-yl)phenyl]ethyl]carbamoyl}pyrrolidin-1-yl]-3-methyl-1-oxobutan-2-yl}-1,2-oxazol-3-yl)piperidin-4-yl 4-[(1r,3r)-3-[(4-{4-[3-amino-6-(2-hydroxyphenyl)pyridazin-4-yl]piperazin-1-yl}pyridin-2-yl)oxy]cyclobutoxy]piperidine-1-carboxylate]	2.5 to 10	> 75
CC(C)[C@@H](C(=O)N1C[C@H](O)C[C@H]1C(=O)N[C@@H](C)c1ccc(C#N)cc1)c1cc(N2CCC(CN3CC[C@H](Oc4cc(N5C6CCC5CN(c5cc(-c7ccccc7O)nnc5N)C6)ccn4)C(F)(F)C3)CC2)no1 [Compound 146, (2S,4R)-1-[(2R)-2-[3-(4-{[(4S)-4-[(4-{3-[3-amino-6-(2-hydroxyphenyl)pyridazin-4-yl]-3,8-diazabicyclo[3.2.1]octan-8-yl}pyridin-2-yl)oxy]-3,3-difluoropiperidin-1-yl]methyl}piperidin-1-yl)-1,2-oxazol-5-yl]-3-methylbutanoyl]-N-[(1S)-1-(4-cyanophenyl)ethyl]-4-hydroxypyrrolidine-2-carboxamide]	10 to 30	> 75
CC(C)[C@@H](C(=O)N1C[C@H](O)C[C@H]1C(=O)N[C@@H](C)c1ccc(C#N)cc1)c1cc(N2CCC(CN3CC[C@@H](Oc4cc(N5C6CCC5CN(c5cc(-c7ccccc7O)nnc5N)C6)ccn4)C(F)(F)C3)CC2)no1 [Compound 147, (2S,4R)-1-[(2R)-2-[3-(4-{[(4R)-4-[(4-{3-[3-amino-6-(2-hydroxyphenyl)pyridazin-4-yl]-3,8-diazabicyclo[3.2.1]octan-8-yl}pyridin-2-yl)oxy]-3,3-difluoropiperidin-1-yl]methyl}piperidin-1-yl)-1,2-oxazol-5-yl]-3-methylbutanoyl]-N-[(1S)-1-(4-cyanophenyl)ethyl]-4-hydroxypyrrolidine-2-carboxamide]	2.5 to 10	> 75
Cc1ncsc1-c1ccc([C@H](C)NC(=O)[C@@H]2C[C@@H](O)CN2C(=O)[C@@H](c2cc(OCCN3CCN(CCOc4cc(N5C6CCC5CN(c5cc(-c7cc(F)ccc7O)nnc5N)C6)ccn4)[C@H](C)C3)no2)C(C)C)cc1 [Compound 148, (2S,4R)-1-[(2R)-2-(3-{2-[(3R)-4-{2-[(4-{3-[3-amino-6-(5-fluoro-2-hydroxyphenyl)pyridazin-4-yl]-3,8-diazabicyclo[3.2.1]octan-8-yl}pyridin-2-yl)oxy]ethyl}-3-methylpiperazin-1-yl]ethoxy}-1,2-oxazol-5-yl)-3-methylbutanoyl]-4-hydroxy-N-[(1S)-1-[4-(4-methyl-1,3-thiazol-5-yl)phenyl]ethyl]pyrrolidine-2-carboxamide]	< 2.5	> 75
Cc1ncsc1-c1ccc([C@H](C)NC(=O)[C@@H]2C[C@@H](O)CN2C(=O)[C@@H](c2cc(OCCN3CCN(CCOc4cc(N5C6CCC5CN(c5cc(-c7ncccc7O)nnc5N)C6)ccn4)[C@H](C)C3)no2)C(C)C)cc1 [Compound 149, (2S,4R)-1-[(2R)-2-(3-{2-[(3R)-4-{2-[(4-{3-[3-amino-6-(3-hydroxypyridin-2-yl)pyridazin-4-yl]-3,8-diazabicyclo[3.2.1]octan-8-yl}pyridin-2-yl)oxy]ethyl}-3-methylpiperazin-1-yl]ethoxy}-1,2-oxazol-5-yl)-3-methylbutanoyl]-4-hydroxy-N-[(1S)-1-[4-(4-methyl-1,3-thiazol-5-yl)phenyl]ethyl]pyrrolidine-2-carboxamide]	≥ 30	
CC(C)[C@H](C(=O)N1C[C@H](O)C[C@H]1C(=O)N[C@@H](C)c1ccc(C#N)cc1)c1cc(N2CCC(OCCN3CCC(Oc4cc(N5C6CCC5CN(c5cc(-c7ccccc7O)nnc5N)C6)ccn4)CC3)CC2)no1 [Compound 150, (2S,4R)-1-[(2S)-2-{3-[4-(2-{4-[(4-{3-[3-amino-6-(2-hydroxyphenyl)pyridazin-4-yl]-3,8-diazabicyclo[3.2.1]octan-8-yl}pyridin-2-yl)oxy]piperidin-1-yl}ethoxy)piperidin-1-yl]-1,2-oxazol-5-yl}-3-methylbutanoyl]-N-[(1S)-1-(4-cyanophenyl)ethyl]-4-hydroxypyrrolidine-2-carboxamide]	≥ 30	
CC(C)[C@@H](C(=O)N1C[C@H](O)C[C@H]1C(=O)N[C@@H](C)c1ccc(C#N)cc1)c1cc(N2CCC(OCCN3CCC(Oc4cc(N5C6CCC5CN(c5cc(-c7ccccc7O)nnc5N)C6)ccn4)CC3)CC2)no1 [Compound 151, (2S,4R)-1-[(2R)-2-{3-[4-(2-{4-[(4-{3-[3-amino-6-(2-hydroxyphenyl)pyridazin-4-yl]-3,8-diazabicyclo[3.2.1]octan-8-yl}pyridin-2-yl)oxy]piperidin-1-yl}ethoxy)piperidin-1-yl]-1,2-oxazol-5-yl}-3-methylbutanoyl]-N-[(1S)-1-(4-cyanophenyl)ethyl]-4-hydroxypyrrolidine-2-carboxamide]	2.5 to 10	> 75
CC(C)[C@H](C(=O)N1C[C@H](O)C[C@H]1C(=O)N[C@@H](C)c1ccc(C#N)cc1)c1cc(N2CCC(OCCN3CCC(O[C@H]4C[C@H](Oc5cc(N6C7CCC6CN(c6cc(-c8ccccc8O)nnc6N)C7)ccn5)C4)CC3)CC2)no1 [Compound 152, (2S,4R)-N-[(1S)-1-(4-cyanophenyl)ethyl]-4-hydroxy-1-[(2S)-3-methyl-2-{3-[4-(2-{4-[(1r,3r)-3-[(4-{3-[3-amino-6-(2-hydroxyphenyl)pyridazin-4-yl]-3,8-diazabicyclo[3.2.1]octan-8-yl}pyridin-2-yl)oxy]cyclobutoxy]piperidin-1-yl}ethoxy)piperidin-1-yl]-1,2-oxazol-5-yl}butanoyl]pyrrolidine-2-carboxamide]	≥ 30	
CC(C)[C@@H](C(=O)N1C[C@H](O)C[C@H]1C(=O)N[C@@H](C)c1ccc(C#N)cc1)c1cc(N2CCC(OCCN3CCC(O[C@H]4C[C@H](Oc5cc(N6C7CCC6CN(c6cc(-c8ccccc8O)nnc6N)C7)ccn5)C4)CC3)CC2)no1 [Compound 153, (2S,4R)-N-[(1S)-1-(4-cyanophenyl)ethyl]-4-hydroxy-1-[(2R)-3-methyl-2-{3-[4-(2-{4-[(1r,3r)-3-[(4-{3-[3-amino-6-(2-hydroxyphenyl)pyridazin-4-yl]-3,8-diazabicyclo[3.2.1]octan-8-yl}pyridin-2-yl)oxy]cyclobutoxy]piperidin-1-yl}ethoxy)piperidin-1-yl]-1,2-oxazol-5-yl}butanoyl]pyrrolidine-2-carboxamide]	< 2.5	> 75
CC(C)[C@H](C(=O)N1C[C@H](O)C[C@H]1C(=O)N[C@@H](C)c1ccc(C#N)cc1)c1cc(N2CCC(OCCN3CCC(Oc4cc(N5CCN(c6cc(-c7ccccc7O)nnc6N)CC5)ccn4)CC3)CC2)no1 [Compound 154, (2S,4R)-1-[(2S)-2-{3-[4-(2-{4-[(4-{4-[3-amino-6-(2-hydroxyphenyl)pyridazin-4-yl]piperazin-1-yl}pyridin-2-yl)oxy]piperidin-1-yl}ethoxy)piperidin-1-yl]-1,2-oxazol-5-yl}-3-methylbutanoyl]-N-[(1S)-1-(4-cyanophenyl)ethyl]-4-hydroxypyrrolidine-2-carboxamide]	≥ 30	
CC(C)[C@@H](C(=O)N1C[C@H](O)C[C@H]1C(=O)N[C@@H](C)c1ccc(C#N)cc1)c1cc(N2CCC(OCCN3CCC(Oc4cc(N5CCN(c6cc(-c7ccccc7O)nnc6N)CC5)ccn4)CC3)CC2)no1 [Compound 155, (2S,4R)-1-[(2R)-2-{3-[4-(2-{4-[(4-{4-[3-amino-6-(2-hydroxyphenyl)pyridazin-4-yl]piperazin-1-yl}pyridin-2-yl)oxy]piperidin-1-yl}ethoxy)piperidin-1-yl]-1,2-oxazol-5-yl}-3-methylbutanoyl]-N-[(1S)-1-(4-cyanophenyl)ethyl]-4-hydroxypyrrolidine-2-carboxamide]	10 to 30	> 75
CC(C)[C@@H](C(=O)N1C[C@H](O)C[C@H]1C(=O)N[C@@H](C)c1ccc(C#N)cc1)c1cc(N2CCC(CN3CC[C@H](Oc4cc(N5C6CCC5CN(c5cc(-c7ccccc7O)nnc5N)C6)ccn4)[C@H](F)C3)CC2)no1 [Compound 156, (2S,4R)-1-[(2R)-2-[3-(4-{[(3R,4S)-4-[(4-{3-[3-amino-6-(2-hydroxyphenyl)pyridazin-4-yl]-3,8-diazabicyclo[3.2.1]octan-8-yl}pyridin-2-yl)oxy]-3-fluoropiperidin-1-yl]methyl}piperidin-1-yl)-1,2-oxazol-5-yl]-3-methylbutanoyl]-N-[(1S)-1-(4-cyanophenyl)ethyl]-4-hydroxypyrrolidine-2-carboxamide]	< 2.5	> 75
CC(C)[C@@H](C(=O)N1C[C@H](O)C[C@H]1C(=O)N[C@@H](C)c1ccc(C#N)cc1)c1cc(N2CCC(CN3CC[C@@H](Oc4cc(N5C6CCC5CN(c5cc(-c7ccccc7O)nnc5N)C6)ccn4)[C@@H](F)C3)CC2)no1 [Compound 157, (2S,4R)-1-[(2R)-2-[3-(4-{[(3S,4R)-4-[(4-{3-[3-amino-6-(2-hydroxyphenyl)pyridazin-4-yl]-3,8-diazabicyclo[3.2.1]octan-8-yl}pyridin-2-yl)oxy]-3-fluoropiperidin-1-yl]methyl}piperidin-1-yl)-1,2-oxazol-5-yl]-3-methylbutanoyl]-N-[(1S)-1-(4-cyanophenyl)ethyl]-4-hydroxypyrrolidine-2-carboxamide]	< 2.5	> 75
